Assay results taken from publication PMC10453766, “Comparison of the Effects of DOTA and NOTA Chelators on ^64Cu-Cudotadipep and ^64Cu-Cunotadipep for Prostate Cancer” (Diagnostics, 2023).

Assays:
[1] = test system: PC3-PIP (PSMA+) cells; experiment: Cell uptake in PC3-PIP cells; format: cell-based, human; details: as given in the abstract
Protocol: PC3-PIP or PC3-flu cells (1 × 10^6) were mixed with 3.7 MBq (100 μCi) of ^64Cu-cudotadipep or ^64Cu-cunotadipep and incubated at 37 °C and 5% CO2 for 2 h. Following incubation, the cells were washed with PBS twice and collected via centrifugation (2000 rpm, 5 min). Radioactivity was measured using 2480 WIZARD2 gamma counter (Perkin Elmer, Waltham, MA, USA). Percent (%) uptake was calculated using the ratio between the radioactivity of the cells and treated radioactivity.

[2] = target: T1, PSMA (Homo sapiens, UniProt Q04609); experiment: Competitive binding assay against ^125I-MIP-1095 in 22Rv1 cells; details: for Ki: 22Rv1 cells, converted from IC50 with the Cheng–Prusoff equation using Kd of MIP-1095; for IC50: cold forms, PSMA-expressing 22Rv1 cells, 1 h, 37 °C
T1 construct: host or cells: 22Rv1 human prostate cancer cells (intact cells)
Protocol: The 22Rv1 cells (1 × 10^6 cells/well, 48-well plate) were washed with phosphate-buffered saline (PBS), and the culture medium was substituted with RPMI-1640 medium containing 1% bovine serum albumin. The cells were incubated for 1 h at 37 °C and 5% CO2 with unlabeled cudotadipep or cunotadipep (1.00 × 10^−4–1.00 × 10^−10 M) or 0.09–0.1 nM ^125I-(S)-2-(3-((S)-1-carboxy-5-(3-(4-iodophenyl)ureido)pentyl)ureido)pentanedioic acid (^125I-MIP-1095). The cells were washed twice in cold PBS and collected via centrifugation (2000 rpm, 5 min). Radioactivity was measured using 2480 WIZARD2 gamma counter (Perkin Elmer, Waltham, MA, USA). IC50 was calculated using Microsoft Excel and converted to Ki, using the Cheng–Prusoff equation [21].

[3] = target: T1, PSMA; experiment: Saturation binding assay of ^125I-MIP-1095 in 22Rv1 cells; details: saturation binding test
Protocol: The dissociation constant (Kd) of MIP-1095 was determined via a saturation binding assay. The saturation binding assay was performed as performed in a previous study. Briefly, the 22Rv1 cells (2 × 10^5) were aliquoted into wells in a 24-well plate and incubated with 0.7–17.5 nM (0.0037–0.1332 MBq) of ^125I-MIP-1095 at 37 °C for 1 h. To prevent nonspecific binding, 500 μM unlabeled MIP was added. Radioactivity was measured using 2480 WIZARD2 gamma counter (Perkin Elmer, Waltham, MA, USA). Statistical analysis was performed using Microsoft Excel.

[4] = ^18F-labeled PSMA compounds; cited from earlier work

T1 sequence (Q04609 whole entry): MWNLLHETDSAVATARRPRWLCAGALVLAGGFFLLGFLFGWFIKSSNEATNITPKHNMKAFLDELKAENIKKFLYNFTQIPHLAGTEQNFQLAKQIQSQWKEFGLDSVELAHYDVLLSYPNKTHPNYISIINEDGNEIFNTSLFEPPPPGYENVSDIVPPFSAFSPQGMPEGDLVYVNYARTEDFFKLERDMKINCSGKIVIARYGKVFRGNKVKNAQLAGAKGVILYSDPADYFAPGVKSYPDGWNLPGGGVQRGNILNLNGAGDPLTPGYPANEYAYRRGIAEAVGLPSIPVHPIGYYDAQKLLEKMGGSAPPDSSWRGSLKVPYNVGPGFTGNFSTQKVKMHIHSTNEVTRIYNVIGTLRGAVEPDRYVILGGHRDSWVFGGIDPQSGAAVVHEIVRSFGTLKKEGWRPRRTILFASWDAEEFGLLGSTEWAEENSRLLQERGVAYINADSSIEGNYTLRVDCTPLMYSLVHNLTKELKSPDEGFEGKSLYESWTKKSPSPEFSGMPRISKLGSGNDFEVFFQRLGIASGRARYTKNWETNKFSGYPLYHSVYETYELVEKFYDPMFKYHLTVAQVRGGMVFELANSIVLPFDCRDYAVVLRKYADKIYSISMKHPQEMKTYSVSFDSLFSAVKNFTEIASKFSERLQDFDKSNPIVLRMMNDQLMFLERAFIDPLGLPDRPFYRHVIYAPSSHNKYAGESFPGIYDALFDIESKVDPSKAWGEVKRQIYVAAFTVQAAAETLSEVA

Ki [2] [nM] | IC50 [2] [nM] | Bmax [3] [nM] | Kd [3] [nM] | SMILES | cellular uptake [1] [%/1 × 10^6 cells] | effective dose [4]
6.75 ± 0.42 | 16.8 ± 1.05 |  |  | O=C([O-])CN1CCN(CC(=O)[O-])CCN(CC(=O)N[C@@H](CCCCNC(=O)CCCc2ccc(I)cc2)C(=O)NCCOCCOCC(=O)N(CCCC[C@H](NC(=O)N[C@@H](CCC(=O)O)C(=O)O)C(=O)O)CC(=O)O)CCN(CC(=O)[O-])CC1.[Cu+2] [Cu-cudotadipep] | 2.93 ± 0.06 | 
2.17 ± 0.25 | 5.42 ± 0.64 |  |  | O=C([O-])CN1CCN(CC(=O)[O-])CCN(CC(=O)N[C@@H](CCCCNC(=O)CCCc2ccc(I)cc2)C(=O)NCCOCCOCC(=O)N(CCCC[C@H](NC(=O)N[C@@H](CCC(=O)O)C(=O)O)C(=O)O)CC(=O)O)CC1.[Cu+2] [Cu-cunotadipep] | 6.02 ± 0.05 | 
 |  | 0.25 | 0.13 | O=C(O)CC[C@H](NC(=O)N[C@@H](CCCCNC(=O)Nc1ccc(I)cc1)C(=O)O)C(=O)O [MIP-1095, ^125I-(S)-2-(3-((S)-1-carboxy-5-(3-(4-iodophenyl)ureido)pentyl)ureido)pentanedioic acid] |  | 
 |  |  |  | O=C(O)CC[C@H](NP(=O)(O)OCCC[C@H](NC(=O)CC[C@H](NC(=O)CCCCCNC(=O)c1ccc([18F])cc1)C(=O)O)C(=O)O)C(=O)O [^18F-CTT1057] |  | 2.28 × 10^−2 mSv/MBq
